Square brackets hold non-standard residues; d marks the D form. Ends that are not written are not given here. Lys(Me3) = C[N+](C)(C)CCCC[C@H](N)C(=O)O
Experiments:
KDM4E (KDM4E1–337) = experiment: MALDI-TOF MS demethylation activity assay, KDM4E; format: biochemical, human; set-up: key: 🟢: Indicates that clear demethylation activity was observed; 🟡: Indicates that low level demethylation activity was observed (<10% conversion after 1 h); 🔴: Indicates no activity under the stated conditions (1 μM KDM, 10 μM peptide); 🟡*: *Indicates demethylation activity was only observed with 5 μM KDM; conditions: peptide as substrate, 1 μM KDM, 10 μM peptide, 50 mM HEPES pH 7.5, Fe(II) 10 μM, ascorbate 100 μM, 2OG 200 μM, 1 h at 37 °C
Procedure: (§1) Recombinant proteins (1 μM) were incubated with peptides (10 μM, sequences are given in Table S1) in 50 mM HEPES, pH 7.5 with addition of Fe(II) ammonium sulfate (10 μM), sodium ascorbate (100 μM) and 2‐oxoglutaric acid (200 μM). Reactions with KDM3A and KDM7A also contained 1 mM tris(2‐carboxyethyl)phosphine hydrochloride. No enzyme reactions were included as negative controls. Reactions were incubated for 1 h at 37 °C before being quenched with 1 : 1 (v/v) methanol. Analysis was carried out by MALDI‐TOF MS (Bruker, Billerica, MA, USA), with demethylation observed as mass shifts of 14 Da.
(§2) The propensity of human JmjC KDMs to catalyse demethylation at H1.4K26 was investigated using recombinant forms of the catalytic domains of representatives of each human JmjC KDM subfamily (KDM2‐7) and fragment peptides (Table S1) 37. Three peptides with identical sequences, corresponding to residues 18–32 of histone H1.4 (H2N‐[…]‐CONH2), but containing either a N ^ε‐tri‐, di‐ or monomethyllysine at K26 were synthesised (Fig. 1B and Table S1). Activity assays monitoring JmjC KDM‐catalysed demethylation of the peptides were then carried out; samples were prepared containing each peptide, 2‐oxoglutarate (2OG), ferrous iron, ascorbate and individual representatives from each JmjC KDM subfamily (KDM2A 38, KDM3A 21, KDM4E 22, KDM5C 39, 40, KDM6B 41, KDM7A 42).

KDM4B (KDM4B1–359) = experiment: MALDI-TOF MS demethylation activity assay, KDM4B; format: biochemical, human; set-up: key: 🟢: Indicates that clear demethylation activity was observed; 🟡: Indicates that low level demethylation activity was observed (<10% conversion after 1 h); 🔴: Indicates no activity under the stated conditions (1 μM KDM, 10 μM peptide); 🟡*: *Indicates demethylation activity was only observed with 5 μM KDM; conditions: peptide as substrate, 1 μM KDM, 10 μM peptide, 50 mM HEPES pH 7.5, Fe(II) 10 μM, ascorbate 100 μM, 2OG 200 μM, 1 h at 37 °C
Procedure: as §1
(§3) Given the activity observed with KDM4E and KDM7A, we decided to investigate the intra‐subfamily conservation of this demethylation activity. The demethylation activity of the other subfamily members (KDM4A‐D and KDM7B) was therefore screened. […] Note that as with H3K9, demethylation of the monomethylated H1.4K26 peptide was only observed with KDM4E, under the stated conditions 24.

KDM3A (KDM3A515–1317) = experiment: MALDI-TOF MS demethylation activity assay, KDM3A; format: biochemical, human; set-up: key: 🟢: Indicates that clear demethylation activity was observed; 🟡: Indicates that low level demethylation activity was observed (<10% conversion after 1 h); 🔴: Indicates no activity under the stated conditions (1 μM KDM, 10 μM peptide); 🟡*: *Indicates demethylation activity was only observed with 5 μM KDM; conditions: peptide as substrate, 1 μM KDM, 10 μM peptide, 50 mM HEPES pH 7.5, Fe(II) 10 μM, ascorbate 100 μM, 2OG 200 μM, 1 mM TCEP, 1 h at 37 °C
Procedure: as §1, §2

recombinant human KDM4A = target: T1, recombinant human KDM4A (Homo sapiens, UniProt O75164); experiment: Formaldehyde dehydrogenase (FDH)-coupled demethylation assay, Michaelis–Menten kinetics; format: biochemical; conditions: peptide as substrate
T1 construct: recombinantly expressed as reported either in Escherichia coli (KDM2A1–557 25, KDM4A1–359 26); His6 (N); made in house; host or cells: Escherichia coli
T1 sequence (O75164 1-359): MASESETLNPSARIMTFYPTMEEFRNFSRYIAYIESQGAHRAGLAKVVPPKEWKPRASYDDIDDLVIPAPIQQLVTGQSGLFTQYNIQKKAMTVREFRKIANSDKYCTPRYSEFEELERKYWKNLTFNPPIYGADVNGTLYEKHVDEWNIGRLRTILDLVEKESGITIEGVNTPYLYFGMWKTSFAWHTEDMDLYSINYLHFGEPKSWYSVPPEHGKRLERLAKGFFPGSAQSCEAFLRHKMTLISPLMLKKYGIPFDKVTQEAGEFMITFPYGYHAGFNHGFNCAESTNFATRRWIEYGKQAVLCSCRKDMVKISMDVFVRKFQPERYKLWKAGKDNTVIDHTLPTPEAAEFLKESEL
Procedure: Kinetic parameters for KDM4 enzymes were determined by use of an FDH (formaldehyde dehydrogenase)/NAD^+‐coupled) assay for quantification of the formaldehyde reaction byproduct, as previously described 27. […] Specific activities were measured using a 100‐μM peptide. For Michaelis–Menten experiments, peptide concentrations were varied. Reactions were monitored using a PHERAstar FS plate reader (BMG Labtech, Ortenberg, Germany) with 355 nm excitation and 460 nm emission. Kinetic parameters were calculated from the reaction rate during the initial linear phase of formaldehyde production, which were used to calculate specific activities or fitted to Michaelis–Menten equations using […] PRISM (GraphPad Software, La Jolla, CA, USA).
Michaelis–Menten kinetics were then conducted with KDM4A. Samples containing KDM4A, 2OG, ascorbate, H1.4K26me3 peptide, NAD^+ and FDH were analysed over time and kinetic parameters were determined by recording the initial reaction rates of NADH production (corresponding to enzymatic production of formaldehyde) at varying peptide concentration.

KDM4D (KDM4D1–359) = experiment: MALDI-TOF MS demethylation activity assay, KDM4D; format: biochemical, human; set-up: key: 🟢: Indicates that clear demethylation activity was observed; 🟡: Indicates that low level demethylation activity was observed (<10% conversion after 1 h); 🔴: Indicates no activity under the stated conditions (1 μM KDM, 10 μM peptide); 🟡*: *Indicates demethylation activity was only observed with 5 μM KDM; conditions: peptide as substrate, 1 μM KDM, 10 μM peptide, 50 mM HEPES pH 7.5, Fe(II) 10 μM, ascorbate 100 μM, 2OG 200 μM, 1 h at 37 °C
Procedure: as §1, §3

[1] = concentration varied, FDH/NAD+-coupled fluorescence assay, 50 mM HEPES pH 7.5, 0.01% Tween-20, 2OG 200 μM, KDM4A, mean and standard deviation of three independent replicates, SD

K M (recombinant human KDM4A; [1]): 32.3 ± 6.4 µM
k cat (recombinant human KDM4A; [1]): 0.32 ± 0.049 s⁻¹
k cat/K M (recombinant human KDM4A; FDH-coupled assay, ratio of k cat (s^−1) and K M (μM)): 0.0098 µM⁻¹ s⁻¹
Substance: TPVKKKAR[Lys(Me3)]SAGAAK [H1.4(18–32)K26me3, peptide of residues 18–32 of histone H1.4 with N ε-trimethyllysine at K26]
demethylation activity on methylated H1.4 peptide (KDM4E (KDM4E1–337)): 🟢
demethylation activity on methylated H1.4 peptide (KDM4B (KDM4B1–359)): 🟢
demethylation activity on methylated H1.4 peptide (KDM3A (KDM3A515–1317)): 🔴
demethylation activity on methylated H1.4 peptide (KDM4D (KDM4D1–359)): 🟢

From paper PMC6220849, “Mechanistic and structural studies of KDM‐catalysed demethylation of histone 1 isotype 4 at lysine 26” (Febs Letters, 2018)
